In patent US7304093B2, “Ketone compounds and compositions for cholesterol management and related uses” (Esperion Therapeutics, Inc., priority 2000, dated 2007):
Where two headings read alike, the source gives them in different places.

How the values were obtained:
female obese Zucker rats = assay: Serum lipid and glycemic control variables in chow-fed obese female Zucker rats, daily oral gavage for two weeks; assay type: in vivo, rat; settings: Rattus norvegicus; for change in vivo at 100 mg/kg: 100 mg/kg daily oral; for change in vivo at 59 mg/kg: 59 mg/kg daily oral; for change in vivo at 30 mg/kg: 30 mg/kg daily oral
Experimental: Ten- to twelve-week old (400-500 grams) female Zucker fatty rats Cr1: (Zuc)-faBR were obtained from Charles River Laboratories. Animals were acclimated to the laboratory environment for seven days. During the acclimation and study period, animals were housed by group in shoebox polycarbonate cages on Cellu-Dri bedding. The temperature and humidity in the animals' quarters (68-78° F.; 30-75% RH) were monitored and the airflow in the room was sufficient to provide several exchanges per hour with 100% fresh filtered air. An automatic timing device provided an alternating 12-hour cycle of light and dark. Rats received pelleted Purina Laboratory Rodent Chow® (5001) prior to and during the drug intervention period except for a 6-hour phase prior to blood sampling. Fresh water was supplied ad libitum via an automatic watering system. Compounds were dissolved, suspended by mixing in a dosing vehicle consisting of 1.5% carboxymethylcellulose/0.2% Tween 20 or 20% ethanol and 80% polyethylene glycol-200 [v/v]. Dose volume of vehicle or vehicle plus each compound was set at 0.25% of body weight in order to deliver the appropriate dose. Doses were administered daily by oral gavage, approximately between 8-10 AM. Regarding blood sampling, animals were fasted for 6 hours prior to all blood collections. Prior to and after 7 days of dosing, a 1.0- to 2.0-mL sample of blood was collected by administering O2/CO2 anesthesia and bleeding from the orbital venous plexus. Following 14 days of dosing, blood was collected by cardiac puncture after euthanasia with CO2. All blood samples were processed for separation of serum and stored at −80° C. until analysis. Commercially available kits were used to determine serum triglycerides (Roche Diagnostic Corporation, Kit No. 148899 or Boehringer Mannheim, Kit No. 1488872), total cholesterol (Roche Diagnostic Corporation, Kit No. 450061), non-esterified fatty acids (Wako Chemicals, Kit No. 994-75409) and β-hydroxybutyrate (Wako Chemicals, Kit No. 417-73501 or Sigma Kit. No. 310-0) on a Hitachi 912 Automatic Analyzer (Roche Diagnostic Corporation). In some instances, an in-house cholesterol reagent was used to determine total serum cholesterol levels. Serum lipoprotein cholesterol levels were determined by lipoprotein profile analysis. Lipoprotein profiles were analyzed using gel-filtration chromatography on a Superose 6HR (1×30 cm) column equipped with on-line detection of total cholesterol as described by Kieft et al (Kieft, K. A.; Bocan, T. M.; Krause, B. R. Rapid on-line determination of cholesterol distribution among plasma lipoproteins after high-performance gel filtration chromatography. J. Lipid Res. 1991, 32, 859-866.). The total cholesterol content of each lipoprotein was calculated by multiplying the independent values determined for serum total cholesterol by the percent area of each lipoprotein in the profile. The percent body weight gain and the ratio of liver to body weight is also determined. Selected data are shown as absolute values or as a percent change of the pretreatment values in Tables 8 and 9.
Select compounds (214c, 210c, and 210g) were further evalutated in the Zucker rat by performing a full dose response and measuring additional scrum variables including markers for diabetes (Tables 10-12).

primary rat hepatocytes = assay: Inhibition of lipid synthesis ([1-14C]-acetate incorporation) in primary cultures of rat hepatocytes; assay type: cell-based; settings: Hepatocyte, 4 h incubation with [1-14C]-acetate
Experimental: Compounds were tested for inhibition of lipid synthesis in primary cultures of rat hepatocytes. Male Sprague-Dawley rats were anesthetized with intraperitoneal injection of sodium pentobarbital (80 mg/kg). Rat hepatocytes were isolated essentially as described by the method of Seglen (Seglen, P. O. Hepatocyte suspensions and cultures as tools in experimental carcinogenesis. J. Toxicol. Environ. Health 1979, 5, 551-560). Hepatocytes were suspended in Dulbecco's Modified Eagles Medium containing 25 mM D-glucose, 14 mM HEPES, 5 mM L-glutamine, 5 mM leucine, 5 mM alanine, 10 mM lactate, 1 mM pyruvate, 0.2% bovine serum albumin, 17.4 mM non-essential amino acids, 20% fetal bovine serum, […] and 20 μg/mL gentamycin) and plated at a density of 1.5×10^5 cells/cm^2 on collagen-coated 96-well plates. Four hours after plating, media was replaced with the same media without serum. Cells were grown overnight to allow formation of monolayer cultures. Lipid synthesis incubation conditions were initially assessed to ensure the linearity of [1-^14C]-acetate incorporation into hepatocyte lipids for up to 4 hours. Hepatocyte lipid synthesis inhibitory activity was assessed during incubations in the presence of 0.25 μCi [1-^14C]-acetate/well (final radiospecific activity in assay is 1 Ci/mol) and 0, 1, 3, 10, 30, 100 or 300 μM of compounds for 4 hours. At the end of the 4-hour incubation period, medium was discarded and cells were washed twice with ice-cold phosphate buffered saline and stored frozen prior to analysis. To determine total lipid synthesis, 170 μl of MicroScint-E® and 50 μl water was added to each well to extract and partition the lipid soluble products to the upper organic phase containing the scintillant. Lipid radioactivity was assessed by scintillation spectroscopy in a Packard TopCount NXT.

[1] = 168 h, 1 wk, Table 9, read-out: HDL-Cholesterol, Percent Change from Pre-Treatment
[2] = 168 h, 1 wk, Table 9, read-out: NonHDL-Cholesterol, Percent Change from Pre-Treatment
[3] = 168 h, 1 wk, Table 9, read-out: TG, Percent Change from Pre-Treatment
[4] = 336 h, 2 wk, Table 9, read-out: HDL-Cholesterol, Percent Change from Pre-Treatment
[5] = 336 h, 2 wk, Table 9, read-out: NonHDL-Cholesterol, Percent Change from Pre-Treatment
[6] = 336 h, 2 wk, Table 9, read-out: TG, Percent Change from Pre-Treatment
[7] = Table 7, ranges: confidence of estimate insufficient to assign a value

| Compound | melting point | change in vivo at 100 mg/kg (female obese Zucker rats; [1]) | change in vivo at 100 mg/kg (female obese Zucker rats; [2]) | change in vivo at 100 mg/kg (female obese Zucker rats; [3]) | change in vivo at 100 mg/kg (female obese Zucker rats; [4]) | change in vivo at 100 mg/kg (female obese Zucker rats; [5]) | change in vivo at 100 mg/kg (female obese Zucker rats; [6]) | IC50 (primary rat hepatocytes; [7]) | change in vivo at 30 mg/kg (female obese Zucker rats; [1]) | change in vivo at 30 mg/kg (female obese Zucker rats; [2]) | change in vivo at 30 mg/kg (female obese Zucker rats; [3]) | change in vivo at 30 mg/kg (female obese Zucker rats; [4]) | change in vivo at 30 mg/kg (female obese Zucker rats; [5]) | change in vivo at 30 mg/kg (female obese Zucker rats; [6]) | other results |
| --- | --- | --- | --- | --- | --- | --- | --- | --- | --- | --- | --- | --- | --- | --- | --- |
| O=C(CCCCC1(C(=O)O)CCCC1)CCCCC1(C(=O)O)CCCC1 [Compound 107g, 1-[9-(1-Carboxycyclopentyl)-5-oxononyl]-1-cyclopentanecarboxylic acid] | 99 to 103 °C | – | – | – | – | – | – | – | – | – | – | – | – | – | change in vivo at 100 mg/kg (female obese Zucker rats; 168 h, 1 wk, 100% = 2-fold increase, Table 8, read-out: HDL-Cholesterol, Percent Change from Pre-Treatment): 36%; change in vivo at 100 mg/kg (female obese Zucker rats; 168 h, 1 wk, 100% = 2-fold increase, Table 8, read-out: NonHDL-Cholesterol, Percent Change from Pre-Treatment): -68%; change in vivo at 100 mg/kg (female obese Zucker rats; 168 h, 1 wk, 100% = 2-fold increase, Table 8, read-out: TG, Percent Change from Pre-Treatment): -67%; change in vivo at 100 mg/kg (female obese Zucker rats; 336 h, 2 wk, 100% = 2-fold increase, Table 8, read-out: HDL-Cholesterol, Percent Change from Pre-Treatment): 40%; change in vivo at 100 mg/kg (female obese Zucker rats; 336 h, 2 wk, 100% = 2-fold increase, Table 8, read-out: NonHDL-Cholesterol, Percent Change from Pre-Treatment): -67%; change in vivo at 100 mg/kg (female obese Zucker rats; 336 h, 2 wk, 100% = 2-fold increase, Table 8, read-out: TG, Percent Change from Pre-Treatment): -70%; IC50 (primary rat hepatocytes; Table 6): 113 µM |
| CC(C)(CCCCCC(=O)CCCCC(C)(C)C(=O)O)C(=O)O [Compound 226, 2,2,13,13-Tetramethyl-7-oxotetradecanedioc acid] | 61 to 62 °C | 240% | -30% | -65% | 72% | -51% | -62% | 3 µM | – | – | – | – | – | – | – |
| CC(C)(Cc1cccc(C(=O)c2cccc(CC(C)(C)C(=O)O)c2)c1)C(=O)O [Compound 231, 3-{3-[3-(2-Carboxy-2-methylpropyl)-benzoyl]-phenyl}-2,2-dimethylpropionic acid] | 46 to 48 °C | – | – | – | – | – | – | – | – | – | – | – | – | – | change in vivo at 59 mg/kg (female obese Zucker rats; [1]): 2%; change in vivo at 59 mg/kg (female obese Zucker rats; [2]): -43%; change in vivo at 59 mg/kg (female obese Zucker rats; [3]): -24%; change in vivo at 59 mg/kg (female obese Zucker rats; [4]): 7%; change in vivo at 59 mg/kg (female obese Zucker rats; [5]): 34%; change in vivo at 59 mg/kg (female obese Zucker rats; [6]): 7% |
| CC(CO)(CCCCC(=O)CCCCC(C)(CO)c1ccccc1)c1ccccc1 (stereo not drawn) [Compound 214d, 1,13-Dihydroxy-2,12-dimethyl-2,12-diphenyltridecan-7-one] | – | – | – | – | – | – | – | 100 to 300 µM | -1% | -30% | -24% | -27% | 30% | 20% | – |
| CC(CCCC(=O)CCCC(C)(C(=O)O)c1ccccc1)(C(=O)O)c1ccccc1 (stereo not drawn) [Compound 210b, 2,10-Dimethyl-6-oxo-2,10-diphenylundecanedioic acid] | 44 to 46 °C | 4% | 36% | 10% | 12% | 65% | 26% | – | – | – | – | – | – | – | – |
| CC(CO)(CCCCCC(=O)CCCCCC(C)(CO)c1ccccc1)c1ccccc1 (stereo not drawn) [Compound 214h, 1,15-Dihydroxy-2,14-dimethyl-2,14-diphenylpentadecan-8-one] | – | 2% | 29% | 24% | 10% | 9% | 1% | 93 µM | – | – | – | – | – | – | – |
| CC(C)Cc1ccc(C(C)(CCCCC(=O)CCCCC(C)(C(=O)O)c2ccc(CC(C)C)cc2)C(=O)O)cc1 (stereo not drawn) [Compound 210f, 2,12-Bis-(4-isobutylphenyl)-2,12-dimethyl-7-oxotridecanedioic acid] | – | 11% | -40% | -63% | 62% | -44% | -66% | 100 to 300 µM | – | – | – | – | – | – | – |
| CC(C)(CO)Cc1cccc(C(=O)c2cccc(CC(C)(C)CO)c2)c1 [Compound 232, Bis[3-(3-hydroxy-2,2-dimethylpropyl)-phenyl]-methanone] | – | 1% | -15% | -29% | -11% | -5% | -8% | 52 µM | – | – | – | – | – | – | – |
| CC(C)(CO)CCCCCCC(=O)CCCCCCC(C)(C)CO [Compound 214i, 1,17-Dihydroxy-2,2,16,16-tetramethylheptadecan-9-one] | – | – | – | – | – | – | – | 2 µM | 85% | -50% | -58% | 61% | -32% | -33% | – |
| CC(C)(CO)CCCCC(=O)CCCCC(C)(CO)c1ccccc1 (stereo not drawn) [Compound 218, 1,13-Dihydroxy-2,2,12-trimethyl-12-phenyltridecan-7-one] | – | – | – | – | – | – | – | 1 µM | -18% | 17% | 18% | -5% | -8% | -7% | – |
